This note sets out measurements from patent EP0830890A1, “Surfactants for use in liquid/supercritical CO2” (AIR PRODUCTS AND CHEMICALS, INC., priority 1996, dated 1998).

Common to all, as to assay type: physicochemical
Data set [1] in a line: Solubility in CO2 by cloud point determination in a variable volume view cell. Set-up: Pressure Describing Cloud Point Determinations For Surfactant/CO2 Concentrations / Pressure Describing Cloud Point Determinations For Surfactant/CO2Concentrations: unit not given here. The method, then:
In the following examples, mixtures of acetylenic alcohols or diols and CO2 were prepared by adding the acetylenic alcohol or diol to a stainless steel variable volume view cell equiped with suitable relief devices, high pressure valves CO2 inlet and outlet and a sapphire window at one end. A high pressure syringe pump (High Pressure Products, HIP pump) was filled with liquid CO2 and used to quantitiatively add CO2 to the pressure vessel. The pressure vessel contained a magnetic stirrer and was stirred via a magnetic couple to a magnet located below the vessel.
A weighed amount of surfactant (0.5-10 weight %) was placed inside the cell chamber in front of the piston. The cell window was attached and 10 cc ? s of CO2, was added to the cell. The surfactant was mixed in the CO2 using a magnetic stirring bar. The cell was mounted in horizontally and then immersed in a water bath. After allowing the high pressure cell to attain thermal equilibrium the pressure within the cell was varied using a floating piston. The pressure was changed to monitor the cloud point as being indicative of insolubility. The operator viewed the floating piston through the sapphire window using a suitable optic device, the onset of insolubility was taken when the translucent solution changed to an orange/brown color due to the Tindall light scattering of the insoluble droplets. The onset of insolubility was checked several times by varying the pressure using the high pressure syringe pump.
A water bath was used to vary the temperature for each concentration. On completing the solubility studies at one concentration and one temperature series, a calibrated injector loop attached to the high pressure cell was filled with the surfactant via a syringe. Utilizing a six way valve to help inject this fixed amount of surfactant, the surfactant concentration within the high pressure cell was increased by a fixed increment. The solubility studies for this new CO2/surfactant concentration were measured at various temperatures in a similar manner to that previously described.

Data set [2] can be described thus: Interfacial tension of a PEG 600 drop in CO2/surfactant solution via pendant drop technique. The note with it: PEG (600) drop, 2 weight % Surfynol/CO2 solution. The text has this: Interfacial activity can be monitored using the 'pendant drop' technique, ("Chemistry of Interfaces" M.J.Jaycock & Parfitt, John Wiley and Sons, New York p49-51). This method is utilized to measure the interfacial tension between a pendant drop and a continuous phase that surrounds the drop. When carbon dioxide is used as the continuous media, special high pressure equipment with sapphire view ports is required to maintain a solution of CO2 and surfactant, and to study the change in shape of the pendant drop for interfacial tension calculations. A general procedure for these high pressure phase behavior measurements may be found in Langmuir, vol. 10 1994, pg 3536-3541, by K. Harrison, K. P. Johnston, J. Goveas and E. A. O ? Rear.
Various ethoxylates of 2,4,7,9-tetramethyl-5-decyn-4,7-diol were used in the interfacial tension study. Table 3 gives the interfacial tension observed for ethoxylates of 2,4,7,9-tetramethyl-5-decyn-4,7-diol containing 20, 40, and 65 wt% ethylene oxide. The table also gives the interfacial tension of the polyethyleneglycol (PEG 600)drop within the pure CO2 media. […] It is interesting to note the actual reduction in interfacial tension. For a control PEG 600 drop at 2510 psi the interfacial tension was measured to be 3.39 dyne/cm (run #5in Table 3). […] This corresponds to lowering the interfacial tension by 0.54 dyne/cm, a 16% reduction. A surfactant/CO2 solution of 2 weight % (using the 40 wt% ethoxylated Surfynol surfactant) gave an interfacial tension of 1.57 dyne/cm. at a CO2 pressure of 4030 psi (run #33in Table 3). The corresponding PEG drop at 4093psi used as the control gave an interfacial tension of 1.92dyne/cm (run #18 in Table 3).

The nature of data set [3]: Solubility in CO2 by cloud point determination in a variable volume view cell. The note with it: Surfactant Concn. in CO2 0.2486 wt%; 65°C. Also noted: unit not given here.

With “Ethoxylated 2,4,7,9-Tetramethyl-5-decyn-4,7-diol [AP-465]”, the “Pressure Describing Cloud Point Determinations For Surfactant/CO2Concentrations” value in data set [1] (Surfactant Concn. in CO2 0.2486 wt%, 25°C) is 1440; in data set [1] (Surfactant Concn. in CO2 0.2486 wt%, 35°C), 1920; in data set [1] (Surfactant Concn. in CO2 0.2486 wt%, 60°C), 2690; in data set [1] (Surfactant Concn. in CO2 0.8867 wt%, 35°C), 4020; in data set [1] (Surfactant Concn. in CO2 0.8867 wt%, 45°C), 4590; in data set [1] (Surfactant Concn. in CO2 0.8867 wt%, 60°C), 5270. The “Pressure Describing Cloud Point Determinations For Surfactant/CO2Concentrations” value is reported as 5470 in data set [1] (Surfactant Concn. in CO2 0.8867 wt%, 65°C) and 2800 in data set [3]. Moreover, the “CO2 solubility (in words)” value in data set [1] (in CO2) is “poor CO2 solubility”. The “Interfacial Tension IFT” value in data set [2] (3599 psi (248 bar)) turned out to be 1.95 dyne/cm; in data set [2] (3628 psi (250 bar)), 1.99 dyne/cm; in data set [2] (3995 psi (276 bar)) it was 1.73 dyne/cm; in data set [2] (3998 psi (276 bar)), 1.66 dyne/cm; in data set [2] (4505 psi (311 bar)), 1.51 dyne/cm; in data set [2] (4508 psi (311 bar)), 1.57 dyne/cm.
